Laboratory results published in US20160045505A1, “COMPOUNDS AND COMPOSITIONS FOR THE TREATMENT OF PARASITIC DISEASES” (NOVARTIS AG, priority 2013, published 2016).

Legend:
[1] = system: Leishmania donovani axenic amastigote parasites; assay: Leishmania donovani axenic amastigote proliferation assay (Cell TiterGlo luminescence, 2 day incubation); type: cell-based; conditions: Leishmania donovani, axenic amastigotes, inhibition of proliferation; read-out: L. donovani amastigotes EC50
[2] = system: L. donovani HU3 strain in mouse peritoneal macrophages; assay: Assay for proliferation of Leishmania parasites in infected mouse peritoneal macrophages (SybrGreen staining, high-content imaging, 5 days); type: cell-based, Leishmania donovani; conditions: Leishmania donovani, Peritoneal macrophage, L. donovani in mouse peritoneal macrophages, inhibition of proliferation; read-out: L. donovani Macrophage EC50
[3] = system: Trypanosoma brucei Lister 427 strain, bloodstream form; assay: Assay for proliferation of kinetoplastid parasite Trypanosoma brucei (Cell Titer Glo, 48 hours); type: cell-based; conditions: Trypanosoma brucei, T. brucei Lister 427 bloodstream form, inhibition of proliferation; read-out: T. brucei EC50
In short: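 Bloodstream-form T. brucei Lister 427 in HMI-9 medium was exposed to compound (DMSO vehicle) for 48 hours at 37° C, 5% CO2. Parasite growth was read as ATP by CellTiter-Glo luminescence, with EC50 calculated from percent inhibition.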

[4] = system: Trypanosoma cruzi amastigotes (Tulahuen strain expressing Lac-Z) cultured in 3T3 fibroblast cells; assay: microbe, parasite or virus in culture; type: cell-based; conditions: Trypanosoma cruzi, TULAHUEN, Fibroblast, T. cruzi amastigotes in 3T3 fibroblast cells, inhibition of proliferation; read-out: T cruzi EC50

SMILES	EC50 [1] [µM]	EC50 [2] [µM]	EC50 [3] [µM]	EC50 [4] [µM]
CCC(O)(C(=O)Nc1cnc2nc(-c3cc(NC(=O)N4CCCC4)ccc3F)cn2c1)C(F)(F)F (centres unmarked) [Compound 128]	1.75	> 50	0.171	> 20
O=C(Nc1cnc2nc(-c3cc(NC(=O)N4CCCC4)ccc3F)cn2c1)C1CCCCO1 (centres unmarked) [Compound 129]	0.435	1.27	0.123	1.34
O=C(Nc1cnc2nc(-c3cc(NC(=O)N4CCCC4)ccc3F)cn2c1)[C@@H]1CNCCO1 [Compound 130]	13.9	26.6	4.66	7.12
Cc1ncc(C(=O)Nc2cnc3nc(-c4cc(NC(=O)N5CCCC5)ccc4F)cn3c2)o1 [Compound 132]	2.87	> 50	1.55	> 13.8
CC1(C(=O)Nc2cnc3nc(-c4cc(NC(=O)N5CCCC5)ccc4F)cn3c2)CC1 [Compound 133]	0.097	0.607	0.019	1.84
O=C(Nc1cnc2nc(-c3cc(NC(=O)N4CCCC4)ccc3F)cn2c1)C1CC1 [Compound 134]	0.267	8.36	0.073	5.2
O=C(Nc1cnc2nc(-c3cc(NC(=O)N4CCCC4)ccc3F)cn2c1)[C@@H]1CCCO1 [Compound 135]	0.255	3.13	0.106	3.79
CC1(C(=O)Nc2cnc3nc(-c4cc(NC(=O)N5CCCC5)ccc4F)cn3c2)CCCCO1 (centres unmarked) [Compound 136]	0.392	1.42	0.157	> 20
COCCOCC(=O)Nc1cnc2nc(-c3cc(NC(=O)N4CCCC4)ccc3F)cn2c1 [Compound 137]	2.15	24.8	0.406	8.01
CCOCC(=O)Nc1cnc2nc(-c3cc(NC(=O)N4CCCC4)ccc3F)cn2c1 [Compound 138]	0.549	3.88	0.127	1.95
COCC(=O)Nc1cnc2nc(-c3cc(NC(=O)N4CCCC4)ccc3F)cn2c1 [Compound 139]	0.45	6.82	0.128	3.74
O=C(Nc1ccc(F)c(-c2cn3cc(NC(=O)C4(O)CC4)cnc3n2)c1)N1CCCC1 [Compound 140]	1.27	8.38	0.378	> 17.6
O=C1CC(C(=O)Nc2cnc3nc(-c4cc(NC(=O)N5CCCC5)ccc4F)cn3c2)C1 [Compound 141]	0.862	8.28	1.36	> 20
CCn1ccnc1C(=O)Nc1cnc2nc(-c3cc(NC(=O)N4CCCC4)ccc3F)cn2c1 [Compound 142]	0.063	0.506	0.121	0.179
O=C(Nc1cnc2nc(-c3cc(NC(=O)N4CCCC4)ccc3F)cn2c1)C1COCCO1 (centres unmarked) [Compound 143]	0.478	1.4	0.159	7.91
Cn1ccnc1C(=O)Nc1cnc2nc(-c3cc(NC(=O)N4CCCC4)ccc3F)cn2c1 [Compound 144]	0.555	> 50	0.164	> 20
CC1(C(=O)Nc2cnc3nc(-c4cc(NC(=O)N5CCCC5)ccc4F)cn3c2)CCC1 [Compound 145]	0.223	0.464	0.045	1.73
CC1(C(=O)Nc2cnc3nc(-c4cc(NC(=O)N5CCCC5)ccc4F)cn3c2)CC(F)(F)C1 [Compound 146]	1.05	7.18	0.236	> 20
O=C(Nc1cnc2nc(-c3cc(NC(=O)N4CCCC4)ccc3F)cn2c1)c1ccccn1 [Compound 147]	0.074	0.067	0.019	0.065
Cc1csc(C(=O)Nc2cnc3nc(-c4cc(NC(=O)c5oc(C)nc5C)ccc4F)cn3c2)n1 [Compound 148]	0.051	0.222	0.061	0.09
Cc1nc(C)c(C(=O)Nc2ccc(F)c(-c3cn4cc(NC(=O)C5CCCO5)cnc4n3)c2)o1 (centres unmarked) [Compound 149]	0.241	0.617	0.516	1.88
Cc1nc(C)c(C(=O)Nc2ccc(F)c(-c3cn4cc(NC(=O)c5oc(C)nc5C)cnc4n3)c2)o1 [Compound 150]	0.532	43.8	0.506	> 20

SMILES	EC50 [1] [µM]	EC50 [2] [µM]	EC50 [3] [µM]	EC50 [4] [µM]
Cc1nc(C)c(C(=O)Nc2ccc(F)c(-c3cn4cc(NC(=O)C5CN(C)CCO5)cnc4n3)c2)o1 (centres unmarked) [Compound 152]	1.73	2.38	0.425	4.67
Cc1nc(C)c(C(=O)Nc2ccc(F)c(-c3cn4cc(NC(=O)C5(C#N)CC5)cnc4n3)c2)o1 [Compound 153]	0.348	0.901	0.135	3.4
Cc1nc(C)c(C(=O)Nc2ccc(F)c(-c3cn4cc(NC(=O)C5CCCOC5)cnc4n3)c2)o1 (centres unmarked) [Compound 154]	0.997	2.53	1.48	6.18
Cc1nc(C)c(C(=O)Nc2ccc(F)c(-c3cn4cc(NC(=O)CC5CCCCO5)cnc4n3)c2)o1 (centres unmarked) [Compound 155]	1.55	3.72	0.796	2.41
Cc1nc(C)c(C(=O)Nc2ccc(F)c(-c3cn4cc(NC(=O)C5CCC(=O)O5)cnc4n3)c2)o1 (centres unmarked) [Compound 156]	3.88	> 50	10.6	> 20
Cc1nc(C)c(C(=O)Nc2ccc(F)c(-c3cn4cc(NC(=O)[C@@H]5[C@@H]6CCC(O6)[C@@H]5N)cnc4n3)c2)o1 [Compound 157]	> 25	> 50	31.3	> 20
Cc1nc(C)c(C(=O)Nc2ccc(F)c(-c3cn4cc(NC(=O)C5CCOCC5)cnc4n3)c2)o1 [Compound 158]	1.92	> 50	4.1	> 20
Cc1nc(C)c(C(=O)Nc2ccc(F)c(-c3cn4cc(NC(=O)C5CCOC(C)(C)C5)cnc4n3)c2)o1 (centres unmarked) [Compound 159]	2.89	10.1	1.47	9.95
Cc1nc(C)c(C(=O)Nc2ccc(F)c(-c3cn4cc(NC(=O)[C@H]5NCC[C@@H]5O)cnc4n3)c2)o1 [Compound 160]	> 25	> 50	28.7	> 20
Cc1nc(C)c(C(=O)Nc2ccc(F)c(-c3cn4cc(NC(=O)[C@@H]5CCCO5)cnc4n3)c2)o1 [Compound 161]	0.206	0.655	0.17	2.54
Cc1nc(C(=O)Nc2cnc3nc(-c4cc(NC(=O)c5oc(C)nc5C)ccc4F)cn3c2)c(C)o1 [Compound 162]	0.065	0.54	0.052	0.127
Cc1nc(C)c(C(=O)Nc2ccc(F)c(-c3cn4cc(NC(=O)[C@](C)(O)C(F)(F)F)cnc4n3)c2)o1 [Compound 163]	0.83	4.45	0.399	10.9
Cc1nc(C)c(C(=O)Nc2ccc(F)c(-c3cn4cc(NC(=O)[C@H]5CCCO5)cnc4n3)c2)o1 [Compound 164]	0.28	0.913	0.196	1.99
Cc1nc(C)c(C(=O)Nc2ccc(F)c(-c3cn4cc(NC(=O)C5CCCCN5C)cnc4n3)c2)o1 (centres unmarked) [Compound 165]	> 25	> 50	1.45	5.18
COCCC(=O)Nc1cnc2nc(-c3cc(NC(=O)c4oc(C)nc4C)ccc3F)cn2c1 [Compound 166]	2.29	> 46.3	1.01	> 20
Cc1nc(C)c(C(=O)Nc2ccc(F)c(-c3cn4cc(NC(=O)c5c[nH]cn5)cnc4n3)c2)o1 [Compound 167]	10.8	> 50	0.904	> 20
Cc1nc(C)c(C(=O)Nc2ccc(F)c(-c3cn4cc(NC(=O)[C@@H]5CCCC[C@@H]5N)cnc4n3)c2)o1 [Compound 168]	20.3	24.4	4.37	> 18.4
COC1CCC(C(=O)Nc2cnc3nc(-c4cc(NC(=O)c5oc(C)nc5C)ccc4F)cn3c2)CC1 (centres unmarked) [Compound 169]	0.7	2.42	0.523	3.87
Cc1nc(C)c(C(=O)Nc2ccc(F)c(-c3cn4cc(NC(=O)C5(C)CCCCO5)cnc4n3)c2)o1 (centres unmarked) [Compound 170]	0.428	0.887	0.518	1.16
Cc1n[nH]c(C(=O)Nc2cnc3nc(-c4cc(NC(=O)c5oc(C)nc5C)ccc4F)cn3c2)n1 [Compound 171]	1.54	> 50	1.41	> 20
Cc1nc(C)c(C(=O)Nc2ccc(F)c(-c3cn4cc(NC(=O)C5CN(C(=O)OC(C)(C)C)CCCO5)cnc4n3)c2)o1 (centres unmarked) [Compound 173]	0.355	0.578	0.148	0.405
Cc1nc(C)c(C(=O)Nc2ccc(F)c(-c3cn4cc(NC(=O)c5ccc(OCCN6CCN(C)CC6)cc5)cnc4n3)c2)o1 [Compound 175]	> 25	12.6	4.48	> 20
